These results are taken from patent publication US20140273210A1, “HIGH […] […] FOR CELL CULTURES AND APPLICATIONS THEREOF” (Board Of Regents, The University Of Texas System, priority 2013, published 2014).

The data set has as its system vascular smooth muscle cells. Kind of data set: LDH release cytotoxicity assay with or without cyclic mechanical strain. The note with it: 10 nM mithramycin, 24 hours. Here is the method:
A colorimetric cytotoxicity assay was used assess the presence of cell death during mechanical loading/drug treatment (Promega). This assay measures release of lactate dehydrogenase (LDH) activity and was used according to the manufactures directions. Mechanical stretch to cells in culture using the various waveforms were applied to cell culture. To confirm the biocompatibility of the cells in the system, cell death was measured through an LDH release assay. The maximal strain of 5% was set to be identical between the groups. After 4 hours of mechanical loading the cytotoxicity of the mechanical load was used using a LDH release assay.
Toxicity testing in the presence of mechanical load. Toxicity of chemotherapeutic drug mithramycin is tested in the presence or absence of mechanical strain. Specifically, cyclic mechanical load of 5% maximal strain was applied to vascular smooth muscle cells in the presence or absence of 10 nM mithramycin for 24 hours. Experiments of vascular smooth muscle cells in the presence or absence of 10 nM mithramycin without mechanical strains were also performed for comparison during the same time period. Release of lactate dehydrogenase (LDH) was measured as indication of cell death and the results were plotted in FIG. 11.

For the substance mithramycin, the “Release of lactate dehydrogenase (LDH) compared to control cells” value (absence of mechanical strain) is “about the same”. Also, the “Increase in LDH release from the cells compared to the control” value (cyclic mechanical load of 5% maximal strain) is “four folds increase”.
